We go through 5 compounds from publication PMC12434715 (Biochemical pharmacology, 2018).

Structures are written as SMILES. Like-named read-outs stand apart in the source and are kept apart here.

A word on the IC50: it is the midpoint of a concentration-inhibition curve. Broadly, the Km is the substrate concentration at which the rate is half of its maximum.

In data set [1] the test system is TK6 cells. The data set is described as follows: MTT assay of cell growth in TK6 cells. The following applies: read-out: IC50 on cell growth. In kind it is cell-based, human.
Data set [2] has as its system TK6/SULT vector cells. It is filed as cell-based, human.
The target of data set [3] is T1, SULT1A1 (Homo sapiens, UniProt P50225).
Data set [4] has as its target T2, SULT1C4 (Homo sapiens, UniProt O75897).
Data set [5] deals with T3, SULT1E1 (Homo sapiens, UniProt P49888).
T3 sequence (P49888 1-294): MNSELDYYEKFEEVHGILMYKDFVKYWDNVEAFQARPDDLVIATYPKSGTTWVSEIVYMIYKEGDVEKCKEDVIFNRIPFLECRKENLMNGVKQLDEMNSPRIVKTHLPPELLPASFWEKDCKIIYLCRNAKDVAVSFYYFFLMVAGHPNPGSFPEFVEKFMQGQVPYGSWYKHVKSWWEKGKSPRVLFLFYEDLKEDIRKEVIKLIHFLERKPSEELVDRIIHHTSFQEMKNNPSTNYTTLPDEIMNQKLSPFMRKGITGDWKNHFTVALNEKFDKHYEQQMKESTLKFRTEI

Data set [6] has as its target T4, SULT2A1 (Homo sapiens, UniProt Q06520).
T4 sequence (Q06520 1-285): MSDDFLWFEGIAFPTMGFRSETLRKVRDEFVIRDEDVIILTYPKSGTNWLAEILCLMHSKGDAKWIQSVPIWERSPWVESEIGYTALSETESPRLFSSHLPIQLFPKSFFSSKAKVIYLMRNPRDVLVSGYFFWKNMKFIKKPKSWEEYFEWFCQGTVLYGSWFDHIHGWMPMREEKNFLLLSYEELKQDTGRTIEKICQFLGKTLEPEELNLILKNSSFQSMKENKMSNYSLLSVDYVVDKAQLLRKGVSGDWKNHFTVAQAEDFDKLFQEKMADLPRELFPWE

The subject of data set [7] is TK6/SULT vector cells. The following applies: 45 µM.
The test system of data set [8] is TK6/SULT2A1 cells. The settings on record: 90 µM.
Data set [9] relates to TK6/SULT2A1 cells. The data set is described as follows: MTT assay of cell growth in TK6/SULT2A1 cells. The settings on record: for IC50: read-out: IC50 on cell growth. (In general: Tetrazolium dyes change colour on reduction, which living cells bring about.)
Data set [10] deals with TK6/SULT vector cells. Description: MTT assay of cell growth in TK6/SULT vector cells. The following applies: for IC50: read-out: IC50 on cell growth.
A short description of data set [11]: Sulfonation activity of pooled human liver cytosols. The following applies: Human liver cytosol; 1 h at 37 °C; mean ± s.d., three experiments.
In data set [12] the target is T1, SULT1A1. Description: Sulfonation by cytosol of HEK293/SULT1A1-overexpressing cells. The settings on record: SULT1A1 cytosol; 1 h at 37 °C; mean ± s.d., three experiments.
Data set [13] concerns the target T2, SULT1C4. The data set is described as follows: Sulfonation by cytosol of HEK293/SULT1C4-overexpressing cells. The following applies: SULT1C4 cytosol; 1 h at 37 °C; mean ± s.d., three experiments.
Data set [14] addresses T3, SULT1E1. The data set is described as follows: Sulfonation by cytosol of HEK293/SULT1E1-overexpressing cells. The settings on record: SULT1E1 cytosol; 1 h at 37 °C; mean ± s.d., three experiments.
Data set [15] is described as follows: Stability of 12-sulfoxynevirapine in buffer by reversed-phase HPLC. In kind it is physicochemical. The following applies: up to 2 months.
The subject of data set [16] is human hepatoma HepG2 cells. The following applies: 48 h exposure, ref [30]; cited from earlier work.
For data set [17], the system named is immortalized normal liver THLE2 cells. The settings on record: 48 h exposure, ref [30]; cited from earlier work.
For data set [18], the target named is T3, SULT1E1. The data set is described as follows: Inhibition of SULT1E1-catalyzed sulfonation of triclosan. It is filed as biochemical. The following applies: 10 μM pentachlorophenol, preliminary experiments.
In data set [19] the target is T4, SULT2A1. The data set is described as follows: Inhibition of SULT2A1-catalyzed sulfonation of triclosan. It is filed as biochemical. The settings on record: 10 μM pentachlorophenol, preliminary experiments.
The target in data set [20] is SULT1C2 (Homo sapiens, UniProt O00338). Description: Sulfonation by cytosol of HEK293/SULT1C2-overexpressing cells. It is filed as in vitro ADME. The settings on record: 250 μM [14C]triclosan, 0.5 mg cytosolic protein, 500 μM PAPS, pH 7.2, 37 °C, 2 h.
Data set [21] addresses T5, SULT2B1 (Homo sapiens, UniProt O00204).
T5 sequence (O00204 1-365): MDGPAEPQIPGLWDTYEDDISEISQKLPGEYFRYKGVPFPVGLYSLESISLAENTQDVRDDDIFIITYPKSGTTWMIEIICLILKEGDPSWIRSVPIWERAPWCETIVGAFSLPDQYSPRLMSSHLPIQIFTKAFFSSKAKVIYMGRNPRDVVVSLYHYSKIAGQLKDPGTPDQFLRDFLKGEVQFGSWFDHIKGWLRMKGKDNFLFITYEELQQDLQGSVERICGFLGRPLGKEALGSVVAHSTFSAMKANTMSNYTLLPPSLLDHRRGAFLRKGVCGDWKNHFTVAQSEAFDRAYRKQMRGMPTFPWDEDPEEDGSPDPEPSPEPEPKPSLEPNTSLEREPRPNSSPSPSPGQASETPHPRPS
Description: Sulfonation by cytosol of HEK293/SULT2B1-overexpressing cells. In kind it is in vitro ADME. The settings on record: 250 μM [14C]triclosan, 0.5 mg cytosolic protein, 500 μM PAPS, pH 7.2, 37 °C, 2 h.

Data set [22] addresses T6, SULT4A1 (Homo sapiens, UniProt Q9BR01).
T6 sequence (Q9BR01 1-284): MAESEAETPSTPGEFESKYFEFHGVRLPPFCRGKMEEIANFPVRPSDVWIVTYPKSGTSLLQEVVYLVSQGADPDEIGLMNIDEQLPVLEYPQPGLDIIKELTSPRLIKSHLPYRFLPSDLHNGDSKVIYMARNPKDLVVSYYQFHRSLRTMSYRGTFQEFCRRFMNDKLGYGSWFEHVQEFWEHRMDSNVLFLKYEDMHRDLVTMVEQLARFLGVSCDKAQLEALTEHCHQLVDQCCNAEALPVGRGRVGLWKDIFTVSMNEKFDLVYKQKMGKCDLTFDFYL
Description: Sulfonation by cytosol of HEK293/SULT4A1-overexpressing cells. The following applies: 250 μM [14C]triclosan, 0.5 mg cytosolic protein, 500 μM PAPS, pH 7.2, 37 °C, 2 h. It is filed as in vitro ADME.

For data set [23], the target named is T7, SULT6B1 (Homo sapiens, UniProt Q6IMI4).
T7 sequence (Q6IMI4 1-303): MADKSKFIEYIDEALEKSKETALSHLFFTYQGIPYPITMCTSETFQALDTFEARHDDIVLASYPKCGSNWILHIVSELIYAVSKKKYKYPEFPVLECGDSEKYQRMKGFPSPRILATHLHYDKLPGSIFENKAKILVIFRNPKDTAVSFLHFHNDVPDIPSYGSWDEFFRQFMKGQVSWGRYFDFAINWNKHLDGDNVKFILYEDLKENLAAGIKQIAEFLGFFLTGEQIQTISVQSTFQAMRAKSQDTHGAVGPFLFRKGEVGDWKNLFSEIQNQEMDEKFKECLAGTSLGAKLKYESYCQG
The data set is described as follows: Sulfonation by cytosol of HEK293/SULT6B1-overexpressing cells. It is filed as in vitro ADME. The following applies: 250 μM [14C]triclosan, 0.5 mg cytosolic protein, 500 μM PAPS, pH 7.2, 37 °C, 2 h.

The target of data set [24] is T8, cytosols from TK6/SULT2A1 cells (Homo sapiens, UniProt Q06520).
T8 sequence (Q06520 1-285): T4 sequence (Q06520 1-285)
The data set is described as follows: Sulfonation of triclosan by cytosols from TK6/SULT2A1 cells. In kind it is in vitro ADME. The settings on record: not in TK6 and TK6/SULT vector cytosols.

T2 sequence (O75897 whole entry): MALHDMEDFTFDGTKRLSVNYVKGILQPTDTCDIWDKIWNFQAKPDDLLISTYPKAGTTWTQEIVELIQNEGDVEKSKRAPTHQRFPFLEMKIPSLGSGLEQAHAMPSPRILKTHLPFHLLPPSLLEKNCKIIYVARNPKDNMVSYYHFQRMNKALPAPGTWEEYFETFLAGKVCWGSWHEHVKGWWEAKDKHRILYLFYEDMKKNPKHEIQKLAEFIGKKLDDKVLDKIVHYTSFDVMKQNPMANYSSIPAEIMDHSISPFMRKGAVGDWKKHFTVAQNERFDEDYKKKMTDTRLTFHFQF
T1 sequence (P50225 whole entry): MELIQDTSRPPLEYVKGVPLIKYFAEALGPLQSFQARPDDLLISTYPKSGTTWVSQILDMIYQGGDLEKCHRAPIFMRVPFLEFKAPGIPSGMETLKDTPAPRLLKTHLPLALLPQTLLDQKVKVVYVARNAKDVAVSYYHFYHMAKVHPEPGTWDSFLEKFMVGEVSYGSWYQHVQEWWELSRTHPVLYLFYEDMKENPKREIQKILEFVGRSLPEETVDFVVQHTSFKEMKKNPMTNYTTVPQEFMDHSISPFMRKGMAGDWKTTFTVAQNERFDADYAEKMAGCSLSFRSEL
SULT1C2, sequence (O00338 whole entry): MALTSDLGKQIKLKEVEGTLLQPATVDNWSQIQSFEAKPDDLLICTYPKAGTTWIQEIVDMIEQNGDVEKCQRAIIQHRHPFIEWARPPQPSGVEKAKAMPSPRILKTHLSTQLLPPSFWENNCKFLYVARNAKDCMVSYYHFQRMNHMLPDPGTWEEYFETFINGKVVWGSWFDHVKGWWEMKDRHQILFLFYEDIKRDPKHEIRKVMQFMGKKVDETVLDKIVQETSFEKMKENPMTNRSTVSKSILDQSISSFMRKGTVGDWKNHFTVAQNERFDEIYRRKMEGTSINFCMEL

As for `O=C1Nc2c(CO)ccnc2N(C2CC2)c2ncccc21` [12-Hydroxynevirapine], the IC50 in data set [1] (TK6 cells, 48 h exposure, MTT assay) was 42.6 µM; in data set [9] (TK6/SULT2A1 cells, 48 h exposure, MTT assay) it was 89.9 µM; in data set [10] (TK6/SULT vector cells, 48 h exposure, MTT assay), 45.1 µM. The “Formation of 12-sulfoxynevirapine in treated cells” value in [2] is “not detected”. Moreover, the Km was 787 ± 62.2 µM in data set [3], 260 ± 38.9 µM in [4], 216 ± 34 µM in [5] and 545 ± 68.5 µM in data set [6]. Moreover, the Cell viability result in [7] and in data set [8] was “approximately 50%” in each case. Also, the Vmax is 71.0 ± 4.5 pmol min^−1 cytosolic protein mg^−1 in data set [11], 71.2 ± 2.0 pmol min^−1 cytosolic protein mg^−1 in data set [12], 56.0 ± 2.2 pmol min^−1 cytosolic protein mg^−1 in data set [13] and 71.0 ± 2.8 pmol min^−1 cytosolic protein mg^−1 in data set [14].
Turning to `O=C1Nc2c(COS(=O)(=O)O)ccnc2N(C2CC2)c2ncccc21` [12-Sulfoxynevirapine], the Stability in buffer result in data set [15] (50 mM Bis-Tris, pH 7.1, room temperature) is on record as “stable”; in data set [15] (100 mM sodium phosphate, pH 7.2, room temperature), “stable”.
For the compound `Cc1ccnc2c1NC(=O)c1cccnc1N2C1CC1` [Nevirapine, 11-cyclopropyl-5,11-dihydro-4-methyl-6H-dipyrido [3,2-b:2′,3′-e][1, 4]diazepin-6-one], the IC50 in data set [1] (Homo sapiens, TK6, 48 h) is roughly 130 µM; in data set [9] (Homo sapiens, 48 h), roughly 130 µM; in data set [10] (Homo sapiens, 48 h), roughly 130 µM. The “Concentration that inhibited cell growth” value in data set [16] and in [17] was “approximately 1.0 mM” each time.
With `Oc1c(Cl)c(Cl)c(Cl)c(Cl)c1Cl` [Pentachlorophenol, pentachlorophenol], the figures for the “Triclosan being sulfated in the presence of inhibitor” value in [18] and in data set [19] were 44% and 12%, respectively. Further, the “Cytotoxicity of the SULT substrate alone” value in [9] (TK6/SULT2A1 cells, tested concentration (DHEA 5 μM, pentachlorophenol 10 μM), 48 h, MTT) is “not cytotoxic”; in data set [10] (TK6/SULT vector cells, tested concentration (DHEA 5 μM, pentachlorophenol 10 μM), 48 h, MTT) it was “not cytotoxic”.
As to `Oc1cc(Cl)ccc1Oc1ccc(Cl)cc1Cl` [Triclosan, triclosan], the Sulfonation of triclosan in [20] is 28.5 ± 0.2 pmol min^−1 mg cytosolic protein^−1; in data set [21], 46.6 ± 1.9 pmol min^−1 mg cytosolic protein^−1; in [22], 50.4 ± 0.6 pmol min^−1 mg cytosolic protein^−1; in [23] it was 33.8 ± 1.0 pmol min^−1 mg cytosolic protein^−1. In addition, the “Sulfonation activity towards triclosan” value in [24] is on record as “showed sulfonation activity”.
